In publication PMC8784640, “New insights into the molecular mechanisms of glutaminase C inhibitors in cancer cells using serial room temperature crystallography” (The Journal of Biological Chemistry, 2021):
Numbering of substitutions follows the chain as printed. Several values for one entry are separate records, joined by “and”; a condition that tells them apart may be missing. Equal values may be shown once.

What was measured:
GAC (Y466W) = biological target: T1, GAC (Y466W) (Mus musculus, UniProt D3Z7P3, Y471W); assay: Tryptophan fluorescence quenching binding assay, GAC (Y466W); details: for Kd: Kd (apparent), Trp 466 fluorescence quenching
T1 sequence (D3Z7P3 72-603 isoform D3Z7P3-2 Y471W limits assumed): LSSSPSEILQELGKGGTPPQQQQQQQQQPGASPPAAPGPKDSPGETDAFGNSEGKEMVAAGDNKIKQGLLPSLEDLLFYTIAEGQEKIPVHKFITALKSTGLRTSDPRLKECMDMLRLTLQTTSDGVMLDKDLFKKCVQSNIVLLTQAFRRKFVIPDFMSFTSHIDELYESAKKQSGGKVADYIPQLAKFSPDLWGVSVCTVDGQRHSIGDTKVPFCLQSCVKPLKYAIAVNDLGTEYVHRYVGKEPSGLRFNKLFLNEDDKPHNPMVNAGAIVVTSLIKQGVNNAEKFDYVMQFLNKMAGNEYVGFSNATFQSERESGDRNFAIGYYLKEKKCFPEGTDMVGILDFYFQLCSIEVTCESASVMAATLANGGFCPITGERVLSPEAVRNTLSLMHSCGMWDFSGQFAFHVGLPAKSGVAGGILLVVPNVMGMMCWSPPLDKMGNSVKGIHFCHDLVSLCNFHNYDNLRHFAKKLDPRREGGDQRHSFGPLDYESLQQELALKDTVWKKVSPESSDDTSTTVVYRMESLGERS
Protocol: (§1) We first examined their ability to alter the conformation of the activation loop, that is, the site where the compounds bind to GAC ([15], [28]). […] We then treated the GAC (Y466W) mutant with each molecule to monitor conformational changes within the substrate-binding site ([15], [28]).
(§2) Mouse GAC (F327W) and GAC (Y471W), which correspond to human GAC (F322W) and GAC (Y466W), were prepared as previously described ([14], [28]), except that the protein was eluted in a higher salt buffer during FPLC purification (500 mM NaCl, 20 mM Tris–HCl, pH 8.5) to enhance protein stability. Assays were then conducted as previously described ([14], [28]). Briefly, 100 nM GAC (F327W) or GAC (Y471W) was solvated in 1 ml of 50 mM Tris-acetate, pH 8.5, with 0.1 mM EDTA and the indicated amount of inhibitor.

recombinant GAC = test system: recombinant GAC; design: method as in PMID 26988803; details: cited from earlier work; for IC50: recombinant GAC (50 nM), total glutamine hydrolysis
GAC (F322W) = biological target: T2, GAC (F322W) (Mus musculus, UniProt D3Z7P3, F327W); assay: Tryptophan fluorescence quenching binding assay, GAC (F322W)
T2 sequence (D3Z7P3 72-603 isoform D3Z7P3-2 F327W limits assumed): T1 sequence (D3Z7P3 72-603 isoform D3Z7P3-2 Y471W limits assumed) with F256W, W400Y
Protocol: as §1, §2

[1] = design: method as in PMID 26988803; details: compared with BPTES; cited from earlier work
GAC (K320A and Y466W) = biological target: T3, GAC (K320A and Y466W) (Mus musculus, UniProt D3Z7P3, K325A/Y471W); assay: Tryptophan fluorescence quenching binding assay, GAC (K320A and Y466W); details: GAC mutant K320A, Trp 466 fluorescence, read-out: Kd (apparent)
T3 construct: made in house
T3 sequence (D3Z7P3 72-603 isoform D3Z7P3-2 K325A/Y471W): T1 sequence (D3Z7P3 72-603 isoform D3Z7P3-2 Y471W limits assumed) with K254A

GAC (F318A and Y466W) = biological target: T4, GAC (F318A and Y466W) (Mus musculus, UniProt D3Z7P3, F323A/Y471W); assay: Tryptophan fluorescence quenching binding assay, GAC (F318A and Y466W); details: GAC mutant F318A, Trp 466 fluorescence, read-out: Kd (apparent)
T4 sequence (D3Z7P3 128-555 F323A/Y471W): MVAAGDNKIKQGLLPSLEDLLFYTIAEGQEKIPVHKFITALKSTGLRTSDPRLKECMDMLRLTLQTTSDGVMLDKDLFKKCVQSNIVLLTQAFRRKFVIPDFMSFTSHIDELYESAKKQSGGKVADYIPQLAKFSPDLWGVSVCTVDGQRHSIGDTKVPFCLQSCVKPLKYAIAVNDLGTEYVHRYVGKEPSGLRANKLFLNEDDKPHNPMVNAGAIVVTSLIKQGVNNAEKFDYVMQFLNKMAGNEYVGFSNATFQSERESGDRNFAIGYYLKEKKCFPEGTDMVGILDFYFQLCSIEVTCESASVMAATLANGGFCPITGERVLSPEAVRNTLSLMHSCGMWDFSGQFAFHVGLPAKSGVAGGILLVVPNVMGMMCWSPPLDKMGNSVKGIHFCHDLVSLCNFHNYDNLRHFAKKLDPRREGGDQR

GAC (R317A and Y466W) = biological target: T5, GAC (R317A and Y466W) (Mus musculus, UniProt D3Z7P3, R322A/Y471W); assay: Tryptophan fluorescence quenching binding assay, GAC (R317A and Y466W); details: GAC mutant R317A, Trp 466 fluorescence, read-out: Kd (apparent)
T5 sequence (D3Z7P3 128-555 R322A/Y471W): T4 sequence (D3Z7P3 128-555 F323A/Y471W) with R195A, A196F

mouse GAC (K325A) = test system: mouse GAC (K325A); design: method as in PMID 23935106; details: concentrations as high as 10 μM; equivalent to human GAC (K320A); cited from earlier work

Row | Structure (SMILES) | quenching of Trp 466 fluorescence / binding (in words) (GAC (Y466W); GAC (Y466W)) | Kd (GAC (Y466W); 100 nM GAC (Y466W)) | IC50 (recombinant GAC) | Kd (GAC (F322W)) | quenching of Trp 322 fluorescence (in words) (GAC (F322W); GAC (F322W)) | further results
1 | Nc1nnc(OC2CCN(c3nnc(N)s3)CC2)s1 [UPGL00018] | markedly less effective | > 1000 nM | > 10000 nM | > 1000 nM | largely ineffective at micromolar concentrations | competition with UPGL00019 for GAC binding (GAC (Y466W); 100 nM GAC (Y466W), 1 μM UPGL00018 and 1 μM UPGL00019, simultaneous or sequential): unable to compete away UPGL00019; lowest concentration with statistically significant effect on tryptophan fluorescence (GAC (Y466W); GAC (Y466W), highest tested concentration, effect minimal): 980 nM; inhibition (recombinant GAC; at 10 μM, catalytic data of this paper come from ref 20): ~20%; lowest concentration with statistically significant quenching (GAC (F322W); GAC (F322W)): 240 nM
2 | O=C(Cc1ccccc1)Nc1nnc(O[C@H]2CCN(c3nnc(NC(=O)Cc4ccccc4)s3)C2)s1 [UPGL00015] |  |  | 40 nM |  |  | 
3 | O=C(Cc1cccc(OC(F)(F)F)c1)Nc1ccc(CCCCc2nnc(NC(=O)Cc3ccccn3)s2)nn1 [CB-839, reference compound] |  |  |  |  |  | calculated logP relative to BPTES [1]: higher calculated logP
4 | O=C(Cc1ccccc1)Nc1nnc(OC2CCN(c3nnc(NC(=O)Cc4ccccc4)s3)CC2)s1 [UPGL00019] | effective at causing a quenching of Trp 466 fluorescence | 28.7 nM and 29 nM | 30 nM | 54.5 nM | quenching of Trp 322 fluorescence | Kd (GAC (K320A and Y466W)): > 1000 nM; Kd (GAC (F318A and Y466W)): 54 nM; Kd (GAC (R317A and Y466W)): 31 nM
5 | Nc1nnc(N2CCC(Oc3nnc(NC(=O)Cc4ccccc4)s3)CC2)s1 [UPGL00031] | effective at causing a quenching of Trp 466 fluorescence | 27.2 nM | 203 nM | 34.4 nM | quenching of Trp 322 fluorescence | 
6 | O=C(Cc1ccccc1)Nc1ccc(OC2CCN(c3ccc(NC(=O)Cc4ccccc4)nn3)CC2)nn1 [UPGL00045] |  |  | 98 nM |  |  | 
7 | O=C(Cc1ccccc1)Nc1nnc(CCSCCc2nnc(NC(=O)Cc3ccccc3)s2)s1 [BPTES, bis-2-(5-phenylacetamido-1,3,4-thiadiazol-2-yl)ethyl sulfide, reference compound] |  |  |  |  |  | inhibition of mouse GAC (K325A) (mouse GAC (K325A)): resistant to inhibition
8 | O=C(Cc1ccccc1)Nc1nnc(NC2CCN(c3nnc(NC(=O)Cc4ccccc4)s3)CC2)s1 [UPGL00004] |  | 76 nM | 29 nM |  |  | Kd (GAC (K320A and Y466W)): > 1000 nM; Kd (GAC (F318A and Y466W)): 24 nM; Kd (GAC (R317A and Y466W)): 38 nM
9 | CC(=O)Nc1nnc(OC2CCN(c3nnc(NC(C)=O)s3)CC2)s1 [UPGL00020] | significantly reduced binding |  | 1050 nM |  |  | 
